{
  "source": "paper PMC10374108",
  "about": "“Structural and biochemical characterization of the key components of an auxin degradation operon from the rhizosphere bacterium Variovorax” (PLOS Biology, 2023)",
  "key": {"[1]": {"biological_target": "IadI (Variovorax paradoxus, UniProt A0A0H2M433)", "sequence (A0A0H2M433 entry or part of it)": "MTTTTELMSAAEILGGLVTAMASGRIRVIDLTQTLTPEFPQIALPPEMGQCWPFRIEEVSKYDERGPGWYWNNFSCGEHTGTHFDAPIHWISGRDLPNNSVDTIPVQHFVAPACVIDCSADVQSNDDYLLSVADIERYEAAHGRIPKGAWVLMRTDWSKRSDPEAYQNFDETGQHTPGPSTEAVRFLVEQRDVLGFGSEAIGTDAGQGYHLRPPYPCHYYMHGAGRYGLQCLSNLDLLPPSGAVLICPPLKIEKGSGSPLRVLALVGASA", "test": "ITC, IAA binding to IadI", "parameters": "species or system Variovorax paradoxus CL14", "protocol": "(§1) ITC experiments were performed using a MicroCal PEAQ-ITC system (Malvern). All the experiments were performed at […] in a buffer containing 25 mM Tris-HCl (pH 7.5) and 150 mM NaCl (unless otherwise stated). […] Data was analyzed using the MicroCal PEAQ-ITC analysis software. All the measurements were repeated at least 2 times."}, "[2]": {"biological_target": "IadK2 (Variovorax paradoxus, UniProt T1X8R6)", "sequence (T1X8R6 entry or part of it)": "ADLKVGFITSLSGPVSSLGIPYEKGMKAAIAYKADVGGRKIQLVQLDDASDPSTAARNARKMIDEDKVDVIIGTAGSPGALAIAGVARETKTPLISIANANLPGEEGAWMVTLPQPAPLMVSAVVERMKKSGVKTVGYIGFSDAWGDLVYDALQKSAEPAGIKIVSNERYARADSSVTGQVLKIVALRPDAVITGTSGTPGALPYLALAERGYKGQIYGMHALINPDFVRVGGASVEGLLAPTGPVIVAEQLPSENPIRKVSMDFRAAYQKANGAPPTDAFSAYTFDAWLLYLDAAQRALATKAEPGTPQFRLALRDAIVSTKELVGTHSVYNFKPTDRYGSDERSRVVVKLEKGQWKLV", "test": "ITC, auxins binding to IadK2", "protocol": "as §1"}, "[3]": {"biological_target": "MarR", "parameters": "method as in Conway et al. 2022", "settings": "MarR domains, high affinity IAA binding; ref Conway et al. 2022; cited from earlier work"}, "[4]": {"biological_target": "IadF (Variovorax paradoxus, UniProt A0A0H2MF82)", "sequence (A0A0H2MF82 entry or part of it)": "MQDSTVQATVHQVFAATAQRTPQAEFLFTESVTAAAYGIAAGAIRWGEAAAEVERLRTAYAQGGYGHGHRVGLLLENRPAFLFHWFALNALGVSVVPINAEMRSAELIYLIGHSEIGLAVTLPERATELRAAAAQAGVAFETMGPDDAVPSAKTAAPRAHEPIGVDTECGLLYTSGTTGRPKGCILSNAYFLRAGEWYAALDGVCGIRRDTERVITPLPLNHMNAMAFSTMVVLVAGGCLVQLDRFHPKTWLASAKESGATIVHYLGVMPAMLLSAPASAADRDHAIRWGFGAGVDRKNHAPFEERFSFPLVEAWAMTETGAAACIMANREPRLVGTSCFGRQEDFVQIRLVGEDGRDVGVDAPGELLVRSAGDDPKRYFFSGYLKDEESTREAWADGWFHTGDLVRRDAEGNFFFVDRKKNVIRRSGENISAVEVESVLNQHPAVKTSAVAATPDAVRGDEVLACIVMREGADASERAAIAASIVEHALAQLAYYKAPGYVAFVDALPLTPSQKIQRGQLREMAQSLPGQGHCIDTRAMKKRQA", "test": "ITC, IAA binding to IadF", "parameters": "species or system Variovorax paradoxus CL14", "protocol": "as §1"}, "[5]": {"biological_target": "T1, IadC (Variovorax paradoxus, UniProt C5CSP5)", "T1 sequence (C5CSP5 1-330)": "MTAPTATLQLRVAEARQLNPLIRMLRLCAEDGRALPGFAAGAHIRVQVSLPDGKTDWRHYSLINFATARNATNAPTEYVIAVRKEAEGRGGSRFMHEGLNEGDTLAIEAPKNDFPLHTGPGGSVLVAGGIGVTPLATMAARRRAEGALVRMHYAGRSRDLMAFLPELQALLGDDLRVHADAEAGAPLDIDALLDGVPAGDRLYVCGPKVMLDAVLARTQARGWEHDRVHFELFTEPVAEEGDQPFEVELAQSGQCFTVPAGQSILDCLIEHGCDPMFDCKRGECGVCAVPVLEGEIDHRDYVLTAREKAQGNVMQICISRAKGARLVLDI", "test": "In vitro IAA transformation assay, IadC alone", "assay_type": "biochemical, Variovorax paradoxus CL14", "settings": "result in words", "protocol": "In vitro assay was performed to test the capability of IadC/D/E enzymes encoded by the iad operon in transforming IAA and analogs. The reaction mixture was composed of 100 mM Tris-HCl (pH7.5), 250 μM reduced NADH, 10 μM ammonium iron (II) sulfate, and 3 μM of each enzyme component. […] The mixture was vortexed periodically to introduce oxygen for the reaction and was boiled to stop the reaction. After pelleting the precipitants, the supernatant was collected and mixed with 2 volumes of Salkowski reagent made of 0.5 M ferric chloride and 35% perchloric acid for the quantification of residual substrate by measuring the adsorption at 530 nm."}, "[6]": {"biological_target": "IadK2 mutants (Variovorax paradoxus, UniProt T1X8R6, R199A)", "sequence (T1X8R6 entry or part of it R199A)": "as the sequence (T1X8R6 entry or part of it) above, with R172A counted along it", "test": "ITC, IAA binding to IadK2 mutants", "parameters": "species or system Variovorax paradoxus CL14", "settings": "Kd", "protocol": "as §1"}, "[7]": {"biological_target": "IadK2 mutants (Variovorax paradoxus, UniProt T1X8R6, S104V)", "sequence (T1X8R6 entry or part of it S104V)": "as the sequence (T1X8R6 entry or part of it) above, with S77V counted along it", "test": "ITC, IAA binding to IadK2 mutants", "parameters": "species or system Variovorax paradoxus CL14", "settings": "Kd", "protocol": "as §1"}, "[8]": {"biological_target": "IadK2 mutants", "test": "ITC, IAA binding to IadK2 mutants", "parameters": "species or system Variovorax paradoxus CL14", "settings": "IadK2 mutant W172L, replicates", "protocol": "as §1"}, "[9]": {"biological_target": "IadK2 mutants (Variovorax paradoxus, UniProt T1X8R6, Y311A)", "sequence (T1X8R6 entry or part of it Y311A)": "as the sequence (T1X8R6 entry or part of it) above, with Y284A counted along it", "test": "ITC, IAA binding to IadK2 mutants", "parameters": "species or system Variovorax paradoxus CL14", "settings": "Kd", "protocol": "as §1"}, "[10]": {"biological_target": "IadK2 mutants (Variovorax paradoxus, UniProt T1X8R6, W172A)", "sequence (T1X8R6 entry or part of it W172A)": "as the sequence (T1X8R6 entry or part of it) above, with W145A counted along it", "test": "ITC, IAA binding to IadK2 mutants", "parameters": "species or system Variovorax paradoxus CL14", "settings": "IadK2 mutant W172A, replicates", "protocol": "as §1"}, "[11]": {"biological_target": "IadK2 mutants (Variovorax paradoxus, UniProt T1X8R6, S104V/W172L)", "sequence (T1X8R6 entry or part of it S104V/W172L)": "as the sequence (T1X8R6 entry or part of it) above, with S77V, W145L counted along it", "test": "ITC, IAA binding to IadK2 mutants", "parameters": "species or system Variovorax paradoxus CL14", "protocol": "as §1"}, "[12]": {"tested_on": "IadK3", "test": "Thermal shift assay (TSA), IadK3 with IAA and analogs", "assay_type": "binding, Variovorax paradoxus CL14", "settings": "IadK3 with IAA, replicates", "protocol": "(§2) Ligands concentrations were tested at 2- to […] excess (10 to 1,000 μM) relative to the proteins (5 μM). The fluorescence dye SYPRO Orange at a final of 200-fold dilution was used to monitor the unfolding of proteins. The protein and ligand were incubated for 10 min at room temperature before the addition of SYPRO Orange dye. The QuantStudio 1 Plus real-time PCR system (Thermo Fisher) was used to control the temperature increasing from […] to […] with an increment of […] and to monitor the fluorescence (excitation: 520 ± 10 nm and emission: 558 ± 10 nm). Each tested group was run in triplicate and repeated. Data was imported to the Protein Thermal Shift software for analysis and plotting."}, "[13]": {"tested_on": "IadK3 point mutants", "test": "IAA binding to IadK3 point mutants (response to reviewers)", "parameters": "species or system Variovorax paradoxus CL14", "settings": "pocket residues replaced by those of IadK2", "source_text": "We have performed point mutations for substitute residues in the potential ligand binding pocket of AdgA (now named as IadK3) with corresponding amino acids of AdgB (now named as IadK2). […] One potential explanation could be that residues beyond the putative ligand binding pocket may regulate the conformation of IadK3 and ligand binding specificity. Further studies would be required to further examined the ligand binding specificity of IadK3."}, "[14]": {"biological_target": "IadJ (Variovorax paradoxus, UniProt A0A0H2M0A9)", "sequence (A0A0H2M0A9 entry or part of it)": "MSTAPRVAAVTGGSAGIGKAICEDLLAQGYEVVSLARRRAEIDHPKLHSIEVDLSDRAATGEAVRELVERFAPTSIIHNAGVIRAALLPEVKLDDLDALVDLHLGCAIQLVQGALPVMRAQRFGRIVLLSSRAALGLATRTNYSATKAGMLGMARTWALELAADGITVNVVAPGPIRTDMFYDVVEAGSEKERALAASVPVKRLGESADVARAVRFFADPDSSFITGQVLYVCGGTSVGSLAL", "test": "ITC, IAA binding to IadJ", "parameters": "species or system Variovorax paradoxus CL14", "protocol": "as §1"}, "[15]": {"biological_target": "IadK3 (Variovorax paradoxus, UniProt A0A0H2LZ84)", "sequence (A0A0H2LZ84 entry or part of it)": "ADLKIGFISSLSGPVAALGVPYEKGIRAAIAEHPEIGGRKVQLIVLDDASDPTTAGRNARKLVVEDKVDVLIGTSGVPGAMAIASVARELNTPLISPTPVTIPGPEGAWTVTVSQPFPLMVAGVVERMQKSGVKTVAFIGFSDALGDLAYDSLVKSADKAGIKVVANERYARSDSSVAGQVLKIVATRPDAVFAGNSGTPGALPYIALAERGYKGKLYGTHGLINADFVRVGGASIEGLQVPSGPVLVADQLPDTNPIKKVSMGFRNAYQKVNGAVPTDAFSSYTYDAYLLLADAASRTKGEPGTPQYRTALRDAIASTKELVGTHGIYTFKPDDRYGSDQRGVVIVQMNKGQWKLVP", "test": "ITC, auxins binding to IadK3", "parameters": "species or system Variovorax paradoxus CL14", "protocol": "as §1"}, "[16]": {"tested_on": "IadK2", "test": "Thermal shift assay (TSA), IadK2 with IAA and analogs", "assay_type": "binding, Variovorax paradoxus CL14", "protocol": "as §2"}, "[17]": {"biological_target": "T1, IadC", "test": "ITC, IAA binding to IadC", "parameters": "species or system Variovorax paradoxus CL14", "protocol": "as §1"}},
  "note": "Several values for one entry are separate records, joined by “and”; a condition that tells them apart may be missing. Identical values can stand only once. Entries after “also recorded” stand apart in the source; their conditions may differ. Like-named read-outs stand apart in the source and are kept apart here.",
  "data": [
    {"smiles": "O=C(O)Cc1c[nH]c2ccccc12", "note": "[IAA, indole-3-acetic acid]", "values": [
      {"measurement": "IAA binding (ITC)", "setting": "[1]", "value": "no binding detected"},
      {"measurement": "Kd", "setting": "[1]; ITC, replicates", "value": "> 100", "unit": "µM"},
      {"measurement": "Kd", "setting": "[2]; ITC, biphasic isotherm, IadK2 + IAA, mean ± SEM, 3 measurements, read-out: KD1", "value": "530 ± 80", "unit": "nM"},
      {"measurement": "Kd", "setting": "[2]; ITC, biphasic isotherm, IadK2 + IAA, mean ± SEM, 3 measurements, read-out: KD2", "value": "9 ± 3.05", "unit": "nM"},
      {"measurement": "Kd", "setting": "[2]; IadK2, ITC, replicates, read-out: Kd1", "value": "500 nM and 600 nM (2×)"},
      {"measurement": "Kd", "setting": "[2]; IadK2, ITC, replicates, read-out: Kd2", "value": "8.3 nM and 12 nM and 11.4 nM"},
      {"measurement": "Kd", "setting": "[3]", "value": "~300", "unit": "nM"},
      {"measurement": "IAA binding (ITC)", "setting": "[4]", "value": "no binding detected"},
      {"measurement": "Kd", "setting": "[4]; ITC, replicates", "value": "> 100", "unit": "µM"},
      {"measurement": "transformation by IadC alone", "setting": "[5]", "value": "neither IadD/E nor IadC alone could catalyze the transformation"},
      {"measurement": "Kd", "setting": "[6]; IadK2 R199A, IAA, mean ± SD", "value": "11.2 ± 1.8", "unit": "µM"},
      {"measurement": "Kd", "setting": "[6]; IadK2 mutant R199A, replicates", "value": "9.5 µM and 10.4 µM"},
      {"measurement": "Kd", "setting": "[7]; IadK2 S104V, IAA, mean ± SD", "value": "1100 ± 300", "unit": "nM"},
      {"measurement": "Kd", "setting": "[7]; IadK2 mutant S104V, replicates", "value": "880 nM and 900 nM and 1500 nM"},
      {"measurement": "Kd", "setting": "[8]", "value": "weak binding"},
      {"measurement": "Kd", "setting": "[9]; IadK2 Y311A, IAA, mean ± SD", "value": "21 ± 3", "unit": "µM"},
      {"measurement": "Kd", "setting": "[9]; IadK2 mutant Y311A, replicates", "value": "17 µM and 24 µM and 22 µM"},
      {"measurement": "Kd", "setting": "[10]", "value": "> 100", "unit": "µM"},
      {"measurement": "Kd", "setting": "[10]; Kd", "value": "> 100", "unit": "µM"},
      {"measurement": "Kd", "setting": "[11]; IadK2 mutant W172L/S104V, replicates", "value": "> 100", "unit": "µM"},
      {"measurement": "Kd", "setting": "[11]; Kd, IadK2 W172L/S104V, IAA", "value": "> 100", "unit": "µM"},
      {"measurement": "Kd", "setting": "[11]; Kd, IadK2 mutant W172L/S104V, replicates", "value": "> 100", "unit": "µM"},
      {"measurement": "ΔTm", "setting": "[12]", "value": "0.997 °C and -0.4983 °C and -0.9966 °C"},
      {"measurement": "binding of IAA to IadK3 point mutants", "setting": "[13]", "value": "none of the mutations could make IadK3 bind with IAA"},
      {"measurement": "IAA binding (ITC)", "setting": "[14]", "value": "no binding detected"},
      {"measurement": "Kd", "setting": "[14]; ITC, replicates", "value": "> 100", "unit": "µM"},
      {"measurement": "Kd", "setting": "[15]; IadK3, ITC, replicates, read-out: ITC binding", "value": "> 100", "unit": "µM"},
      {"measurement": "binding to IadK3 (ITC)", "setting": "[15]; result in words", "value": "no obvious binding"},
      {"measurement": "Tm change with IAA (TSA)", "setting": "[16]; IadK2 WT, replicates, Fig 2E", "value": 5.98},
      {"measurement": "ΔTm", "setting": "[16]; IadK2 with IAA, replicates", "value": 5.98, "unit": "°C"},
      {"measurement": "stabilization of IadK2 (melting temperature, TSA)", "setting": "[16]; result in words", "value": "substantially increased the melting temperature; also recorded: most significant stabilization effect"},
      {"measurement": "IAA binding (ITC)", "setting": "[17]", "value": "no binding detected"},
      {"measurement": "Kd", "setting": "[17]; ITC, replicates", "value": "> 100", "unit": "µM"}
    ]}
  ]
}
